Laboratory results taken from publication PMC6367362, “MD001, a Novel Peroxisome Proliferator-activated Receptor α/γ Agonist, Improves Glucose and Lipid Metabolism” (Scientific Reports, 2019).

How the values were obtained:
[1] = test system: differentiated 3T3-L1 adipocytes; assay: In vitro glucose consumption assay, 3T3-L1 adipocytes; assay type: cell-based, mouse; settings: 10, 50 μM, 24 h
Procedure: Figure 3 MD001 promotes glucose consumption by induction of GLUT expression. HepG2 (A), differentiated 3T3-L1 adipocytes (B), and differentiated C2C12 myotubes (C) were treated with vehicle, MD001 (10, 50 μM), or rosiglitazone (rosi, 10 μM) for 24 h; glucose consumption was examined as described in the Methods section. Cells were harvested for total RNA isolation. Relative expression levels of GLUT2 (D) and GLUT4 (E,F) were quantitated using qRT-PCR. *, **, and ^† vs. vehicle. Data represent the mean ± SD of three independent experiments. *P < 0.05, **P < 0.01, and ^†P < 0.01.
The glucose consumption assay was performed as previously described. Briefly, cells were treated with MD001 or rosiglitazone […]. The conditioned medium from cultured cells was harvested and assayed for glucose content using a Glucose Colorimetric Assay Kit II (BioVision Inc., Milpitas, CA, USA).

wild type C57BL/6J mice [2] = assay: Toxicity study in wild type C57BL/6J mice; assay type: in vivo, mouse; settings: wild type C57/BL6 mice, 50 or 100 mg/kg MD001 for eight weeks
Source text: Supplementary Table S4. Laboratory findings in control and MD001-treated mice
Results are expressed as the mean ( ± SD).
ALT, alanine transaminase; AST, aspartate transaminase; BUN, blood urea nitrogen; WBC, white blood cells.
Supplementary Table S5. Crystal data and structure refinement for 4a
Identification code exp_524
Empirical formula C27H22O5
Crystal system monoclinic

PPARβ/δ = target: T1, PPARβ/δ (Homo sapiens, UniProt Q03181); assay: SPR analysis of binding to immobilised HA-PPARβ/δ; settings: N.B = No binding up to 500 μM
T1 construct: HA; made in house
T1 sequence (Q03181 1-441): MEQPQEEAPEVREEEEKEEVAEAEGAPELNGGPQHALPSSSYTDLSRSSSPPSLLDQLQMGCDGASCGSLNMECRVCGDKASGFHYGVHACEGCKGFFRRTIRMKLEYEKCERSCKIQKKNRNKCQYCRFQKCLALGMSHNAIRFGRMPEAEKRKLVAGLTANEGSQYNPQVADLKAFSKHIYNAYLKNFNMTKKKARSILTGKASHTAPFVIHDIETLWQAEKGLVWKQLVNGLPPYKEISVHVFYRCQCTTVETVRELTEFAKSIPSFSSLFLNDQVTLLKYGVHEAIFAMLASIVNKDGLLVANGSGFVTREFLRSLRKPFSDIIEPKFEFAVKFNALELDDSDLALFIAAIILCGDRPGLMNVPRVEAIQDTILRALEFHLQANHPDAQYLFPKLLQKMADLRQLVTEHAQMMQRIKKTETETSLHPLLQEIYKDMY
Procedure: (§1) SPR analysis was performed using a Reichert SR7500DC (Reichert Technologies, Depew, NY, USA). HA-PPARα, HA-PPARβ/δ, and HA-PPARγ were purified as previously described[23] and was immobilised on CMDH chips (Reichert Technologies) according to the manufacturer’s instructions. MD001 was loaded in a dose-dependent manner (31.25, 62.5, 125, 250, and 500 μM) for the SPR assay. The dissociation constant (KD) value was determined using the Scrubber2 program (Informer Technologies, Inc., Los Angeles, CA, USA).

wild type C57BL/6J mice [3] = assay: Oral once-daily administration to wild type C57BL/6J mice; assay type: in vivo, mouse
Procedure: Supplementary Figure S6. MD001 has no influence on food intake of mice. (A) Wild type C57/BL6 mice were orally administered with vehicle, rosiglitazone (20 mg/kg), or MD001 (20 mg/kg) once a day for 60 days. The change in their body weight was evaluated and presented as gain of body weight per group (n = 5 - 6 in each group). (B) The 3-day food intake in wild type C57/BL6 mice or db/db mice during the administration of the indicated drug was measured three times (n = 5 - 6 in each group). The data represent the mean ± SD.
C57/BL6 mice. (A-H) Wild type C57/BL6 mice were administered with vehicle, rosiglitazone (20 mg/kg), or MD001 (20 mg/kg) (n = 5 in each group) for 60 days, and their blood metabolites were measured. (B) Blood glucose level was examined during the administration of the […]

db/db mice = assay: Oral once-daily administration to diabetic db/db mice
Procedure: (A) Changes in blood glucose levels was monitored in db/db mice administered once a day with vehicle, WY14643 (WY, 20 mg/kg), rosiglitazone (rosi, 20 mg/kg), or MD001 (n = 5–6 per group) as indicated. […] (D–M) The change in various blood metabolites was examined in db/db mice administered once a day with vehicle, WY14643 (WY), rosiglitazone (rosi), or MD001 (n = 5–6 per group). *, **, and ^#, vs. vehicle; ^†, vs. vehicle, MD001(5 mg/kg), and MD001(20 mg/kg). The data represent the mean ± S.D. *P < 0.05, **P < 0.01, ^#P < 0.001, and ^†P < 0.01.
Six-week-old C57BLKS/J-Lepr^db/Lepr^db or wild type C57BL/6J male mice were purchased from Orient Bio, Inc. (Seongnam, Korea) and acclimatised for one week. Mice were randomly grouped and orally administered with vehicle, WY14643 (20 mg/kg), rosiglitazone (20 mg/kg), or MD001 (5 mg/kg or 20 mg/kg) once a day for two months. […] Blood glucose levels were measured at the indicated time point using an OneTouch Ultra Blood Glucose Monitoring System (LifeScan, Inc., Milpitas, CA, USA).
Livers and blood samples were collected from mice in each group.
Tissues specimens including liver, perigonadal adipose tissue, skeletal muscle, spleen, kidney, and heart, were collected from mice in each group, fixed in 10% formalin, and embedded into paraffin. Tissue sections (5 μm) were stained with haematoxylin and eosin (H&E).

PPARα = target: T2, PPARα (Homo sapiens, UniProt Q07869); assay: SPR analysis of binding to immobilised HA-PPARα; settings: MD001 31.25-500 μM
T2 construct: HA; made in house
T2 sequence (Q07869 1-468): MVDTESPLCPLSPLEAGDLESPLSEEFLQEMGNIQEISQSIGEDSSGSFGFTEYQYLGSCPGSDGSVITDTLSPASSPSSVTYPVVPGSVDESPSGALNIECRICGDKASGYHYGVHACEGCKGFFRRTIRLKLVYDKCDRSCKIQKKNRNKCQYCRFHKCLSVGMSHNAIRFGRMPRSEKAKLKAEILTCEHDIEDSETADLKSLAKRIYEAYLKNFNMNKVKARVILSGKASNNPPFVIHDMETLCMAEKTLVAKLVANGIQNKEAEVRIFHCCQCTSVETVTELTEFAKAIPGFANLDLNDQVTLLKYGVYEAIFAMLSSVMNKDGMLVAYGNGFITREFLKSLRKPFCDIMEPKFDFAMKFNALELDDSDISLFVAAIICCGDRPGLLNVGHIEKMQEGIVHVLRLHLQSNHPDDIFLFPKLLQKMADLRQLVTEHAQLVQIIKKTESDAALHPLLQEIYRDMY
Procedure: as §1

[4] = wild type C57BL/6J mice, 20 mg/kg, 60 days, compared to vehicle
[5] = wild type C57BL/6 mice, 20 mg/kg, 60 days
[6] = db/db mice, 60 days, rosiglitazone 20 mg/kg, MD001 5 and 20 mg/kg
[7] = db/db mice, once a day for 60 days, rosiglitazone 20 mg/kg
[8] = db/db mice, 20 mg/kg, 60 days, qRT-PCR
[9] = db/db mice, 20 mg/kg, qRT-PCR and immunoblot

**Q.** With Cc1c(O)cc(O)c2c(-c3ccccc3)c(C(=O)/C=C/c3ccccc3)c(=O)oc12 [MD001] as the compound, how does the glucose consumption [1] read?
**A.** The glucose consumption was “significantly increased glucose consumption in a dose-dependent manner”.

**Q.** What about the “liver and kidney toxicities” value (wild type C57BL/6J mice [2]) of the same compound?
**A.** Its value is “not observed”.

**Q.** What about the “white blood cell counts and haemoglobin (toxicology study)” value (wild type C57BL/6J mice [2]) of the same compound?
**A.** The value was “no differences”.

**Q.** And the body weight change (wild type C57BL/6J mice [2]; data not shown)?
**A.** The body weight change was “no significant differences”.

**Q.** And the “KD (M), second row of Supplementary Table S3 (PPARβ/δ)” value (PPARβ/δ)?
**A.** Its value is “N.B”.

**Q.** And the body weight gain (wild type C57BL/6J mice [3]; wild type C57BL/6J mice, once a day for 60 days)?
**A.** Its body weight gain is “no induction of body weight gain”.

**Q.** What about the “H&E staining of adipose tissue, skeletal muscle, and liver” value (wild type C57BL/6J mice [3]; wild type C57BL/6J mice, 20 mg/kg once a day for 60 days) of the same compound?
**A.** The value was “no differences”.

**Q.** And the blood glucose (wild type C57BL/6J mice [3]; [4])?
**A.** The blood glucose was “did not have any effect”.

**Q.** And the “levels of plasma lipids” value (wild type C57BL/6J mice [3]; [4])?
**A.** The value was “did not have any effect”.

**Q.** And the “blood ALT levels” value (wild type C57BL/6J mice [3]; [5])?
**A.** The value was “no effect”.

**Q.** What about the “blood AST levels” value (wild type C57BL/6J mice [3]; [5]) of the same compound?
**A.** Its value is “no effect”.

**Q.** And the “blood glucose levels in intraperitoneal insulin tolerance test (IPITT)” value (db/db mice; db/db mice)?
**A.** Its value is “lowered”.

**Q.** What about the body weight gain (db/db mice; db/db mice, 60 days, compared to vehicle) of the same compound?
**A.** The body weight gain was “no induction of body weight gain”.

**Q.** And the RBC count (db/db mice; [6])?
**A.** The RBC count was “did not decrease”.

**Q.** And the “haematocrit (HCT) level” value (db/db mice; [6])?
**A.** Its value is “did not decrease”.

**Q.** And the “haemoglobin (Hb) level” value (db/db mice; [6])?
**A.** The value was “did not decrease”.

**Q.** And the “number of large fat cells (>150 μm in diameter)” value (db/db mice; db/db mice, adipose tissue H&E)?
**A.** The value was “significantly reduced”.

**Q.** What about the “number of medium fat cells (100~150 μm in diameter)” value (db/db mice; db/db mice, adipose tissue H&E) of the same compound?
**A.** The value was “significantly increased”.

**Q.** What about the “number of small fat cells (<100 μm in diameter)” value (db/db mice; db/db mice, adipose tissue H&E) of the same compound?
**A.** The value was “significantly increased”.

**Q.** What about the “increase in fat mass as compared to the vehicle control” value (db/db mice; [7]) of the same compound?
**A.** The value was “no increase”.

**Q.** And the “increase in liver weight as compared to the vehicle control” value (db/db mice; [7])?
**A.** The value was “no increase”.

**Q.** And the HDL levels (db/db mice; db/db mice, oral once a day)?
**A.** The HDL levels was “increased”.

**Q.** And the LDL levels (db/db mice; db/db mice, oral once a day)?
**A.** The LDL levels was “significantly decreased”.

**Q.** And the “blood FFA” value (db/db mice; db/db mice, oral once a day)?
**A.** The value was “significantly decreased”.

**Q.** What about the “blood TG” value (db/db mice; db/db mice, oral once a day) of the same compound?
**A.** The value was “significantly decreased”.

**Q.** What about the “blood alanine aminotransferase (ALT) levels” value (db/db mice; db/db mice, oral once a day) of the same compound?
**A.** Its value is “significantly reduced”.

**Q.** What about the “blood aspartate aminotransferase (AST) levels” value (db/db mice; db/db mice, oral once a day) of the same compound?
**A.** The value was “significantly reduced”.

**Q.** What about the blood insulin (db/db mice; db/db mice, oral once a day) of the same compound?
**A.** Its blood insulin is “significantly decreased”.

**Q.** What about the “serum adiponectin (Acrp30) levels” value (db/db mice; db/db mice, oral once a day) of the same compound?
**A.** Its value is “increased”.

**Q.** And the total cholesterol levels (db/db mice; db/db mice, oral once a day)?
**A.** Its total cholesterol levels is “did not affect”.

**Q.** And the blood glucose levels (db/db mice; db/db mice, oral once a day, MD001 5 or 20 mg/kg, WY14643 20 mg/kg, rosiglitazone 20 mg/kg)?
**A.** The blood glucose levels was “significantly decreased blood glucose levels in a dose-dependent manner”.

**Q.** What about the “hepatic FFA” value (db/db mice; db/db mice, 20 mg/kg) of the same compound?
**A.** Its value is “significantly reduced”.

**Q.** And the “hepatic TG” value (db/db mice; db/db mice, 20 mg/kg)?
**A.** Its value is “significantly reduced”.

**Q.** What about the “hepatic steatosis (H&E staining of liver)” value (db/db mice; db/db mice, 20 mg/kg) of the same compound?
**A.** The value was “reduction in size and number of hepatic lipid droplets in a dose-dependent manner”.

**Q.** And the “diameter of the glomerular capsule” value (db/db mice; db/db mice, 20 mg/kg once a day for 60 days)?
**A.** The value was “significantly reduced”.

**Q.** What about the “expression of PEPCK and G6Pase in the liver” value (db/db mice; db/db mice, 20 mg/kg once a day for 60 days, qRT-PCR) of the same compound?
**A.** The value was “decreased”.

**Q.** What about the “H&E staining of skeletal muscle” value (db/db mice; db/db mice, 20 mg/kg, 60 days, compared among vehicle and treated groups) of the same compound?
**A.** Its value is “no differences”.

**Q.** What about the “expression of inflammatory genes TNFα, MCP-1 and macrophage-marker genes CD11b, CD11c” value (db/db mice; [8]) of the same compound?
**A.** The value was “decreased”.

**Q.** What about the “liver expression of hepatic lipogenesis genes ADD1, ACC, FAS” value (db/db mice; [8]) of the same compound?
**A.** Its value is “decreased”.

**Q.** And the “skeletal muscle expression of ACOX, CPT, MLYCD, GLUT4, and LPL” value (db/db mice; [8])?
**A.** Its value is “significantly increased”.

**Q.** And the “adipose tissue expression of ACOX, CPT, GLUT4, and CD36” value (db/db mice; [9])?
**A.** The value was “significantly increased”.

**Q.** And the “liver expression of target genes of PPARα (ACOX, CPT, MLYCD) and PPARγ (GLUT2, GK, CD36)” value (db/db mice; [9])?
**A.** The value was “significantly increased”.

**Q.** And the “blood glucose levels in oral glucose tolerance test (OGTT)” value (db/db mice; db/db mice, glucose 1 g/kg, eight weeks after drug administration)?
**A.** The value was “significantly decreased”.

**Q.** What about the food ingestion (db/db mice; wild type C57BL/6J and db/db mice, 3-day food intake) of the same compound?
**A.** Its food ingestion is “without changes in food ingestion”.

**Q.** What about the Kd (PPARα) of the same compound?
**A.** The Kd was 9.55 ± 0.8 µM.
